# What was measured:
# E. faecium EF1509 (VRE) = assay: Antibacterial activity (MIC, broth dilution); format: cell-based; details: CLSI, in µg/mL
# Procedure: (§1) Determination of the Minimal Inhibitory Concentrations (MIC) by dilution was carried out by broth dilution according to CLSI standards.
# E. faecium F118 (VRE) = assay: Antibacterial activity (MIC, broth dilution); format: cell-based; details: CLSI, in µg/mL
# Procedure: as §1
# P. aeruginosa ATCC 27853 = assay: Antibacterial activity (MIC, broth dilution); format: cell-based; details: CLSI
# Procedure: as §1
# [1] = system: S. aureus HFH-30123 (MRSA); assay: Antibacterial activity (MIC, broth dilution); format: cell-based; details: CLSI
# Procedure: as §1
# [2] = system: K. pneumoniae NR-15410 (KPC); assay: Antibacterial activity (MIC, broth dilution); format: cell-based; details: CLSI
# Procedure: as §1
# [3] = system: K. pneumoniae NR-15411 (KPC); assay: Antibacterial activity (MIC, broth dilution); format: cell-based; details: CLSI
# Procedure: as §1
# S. aureus MRSA 1094 = assay: Antibacterial activity (MIC, broth dilution); format: cell-based; details: CLSI
# Procedure: as §1
# P. aeruginosa X13273 = assay: Antibacterial activity (MIC, broth dilution); format: cell-based; details: CLSI, in µg/mL
# Procedure: as §1
# E. cloacae ATCC 13047 = assay: Antibacterial activity (MIC, broth dilution); format: cell-based; details: CLSI
# Procedure: as §1
# E. aerogenes ATCC 13048 = assay: Antibacterial activity (MIC, broth dilution); format: cell-based; details: CLSI
# Procedure: as §1
# P. aeruginosa PA01 = assay: Antibacterial activity (MIC, broth dilution); format: cell-based; details: CLSI
# Procedure: as §1
# [4] = Lipid II binding by Surface Plasmon Resonance; details: SPR, immobilized 3-Lipid II, 25°C
# Procedure: Short-chain water-soluble Lipid II containing a lipid tail of three isoprene units was generated and purified essentially as described. Typically, M. flavus vesicles (120 μmol lipid-Pi) were incubated together with 500 μmol UDP-GlcNAc, 500 μmol UDP-MurNAC-pentapeptide and 400 μmol farnesyl phosphate in 100 mM Tris-HCl pH 8.0, 5 mM MgCl2. The incubation lasted two hours at room temperature for 3-P. The synthesis of 3-Lipid II was followed using RP-8 reversed phase TLC (Merck) developed in 75% methanol. For purification, the membranes were removed by centrifugation at 40,000 x g and the supernatant was collected and loaded on a C18 HPLC column and eluted with a linear gradient from 50 mM ammonium bicarbonate to 100% methanol in 30 minutes. Farnesyl-Lipid II (3-Lipid II) eluted at approximately 60% methanol. Its identity was confirmed by mass spectroscopy. Surface Plasmon Resonance binding experiments were carried out on a BIAcore T100 system (BIAcore Inc., Piscataway, NY) at 25°C. The assay buffer was 10 mM HEPES, 150 mM NaCl, 0.05% surfactant P20, pH 7.4 (± 3 mM EDTA) supplemented with 10% DMSO. 3-Lipid II (50 RUs) was immobilized on CM5 sensor chips using the amine-coupling chemistry recommended by the manufacturer. For initial determination of binding, compounds were introduced into the flow-cells (30 μl/min) in the running buffer at 10 μM. Resonance signals were corrected for nonspecific binding by subtracting the background of the control flow-cell. After each analysis, the sensor chip surfaces were regenerated with 50 mM NaOH for 30 s at a flow rate 100 μl/min, and equilibrated with the buffer prior to next injection. For binding kinetics studies, binding isotherms were analyzed with manufacturer-supplied software for BIAcore T100.
# A. baumanii ATCC 19606 = assay: Antibacterial activity (MIC, broth dilution); format: cell-based, Acinetobacter baumanii; details: CLSI, in µg/mL
# Text: Staphylococcus aureus ATCC 29213, Escherichia coli ATCC 25922, Enterococcus faecalis ATCC 29212, Streptococcus pneumonia ATCC 49619 and Acinetobacter baumanii ATCC 19606 were obtained from Microbiologics (St. Cloud, MN). E. faecalis ATCC 51575, ATCC 51299 and REMEL C99707 and E. faecium ATCC 51559 (MDR), REMEL IH79985 and REMEL C110914 were generously provided by the Laboratory of Pathology, University of Maryland Baltimore School of Medicine. Unless stated otherwise, chemicals and reagents were purchased from Sigma.
# as §1
# HeLa cells = assay: Cytotoxicity against mammalian cells (MTS assay); format: cell-based
# Procedure: The cytotoxicity concentration of antibacterial compounds that produces half maximal decrease in viability (CC50) against mammalian cells (HeLa, ATCC CCL-2.2) was determined as described. The effect of compounds on HeLa cell viability was assessed in triplicate by measuring the mitochondrial activity using MTS assays according to the manufacturer’s instructions (Cell Titer 96 proliferation assay, Promega). The cells were incubated for 72 hours in RPMI1640 medium containing the compounds at final concentrations ranging from 64 to 0.125 μg/ml. CC50 was determined using a standard curve of serially diluted untreated cells in each experiment.
Structure (SMILES),Antibacterial activity (MIC) E. faecium EF1509 (VRE) (E. faecium EF1509 (VRE)),Antibacterial activity (MIC) E. faecium F118 (VRE) (E. faecium F118 (VRE)),Antibacterial activity (MIC) P. aeruginosa ATCC 27853 (P. aeruginosa ATCC 27853) [µg/mL],Antibacterial activity (MIC) S. aureus HFH-30123 (MRSA) [1] [µg/mL],Antibacterial activity (MIC) K. pneumoniae NR-15410 (KPC) [2] [µg/mL],Antibacterial activity (MIC) K. pneumoniae NR-15411 (KPC) [3] [µg/mL],Antibacterial activity (MIC) S. aureus MRSA 1094 (S. aureus MRSA 1094) [µg/mL],Antibacterial activity (MIC) P. aeruginosa X13273 (P. aeruginosa X13273),Antibacterial activity (MIC) E. cloacae ATCC 13047 (E. cloacae ATCC 13047) [µg/mL],Antibacterial activity (MIC) E. aerogenes ATCC 13048 (E. aerogenes ATCC 13048) [µg/mL],Antibacterial activity (MIC) P. aeruginosa PA01 (P. aeruginosa PA01) [µg/mL],Kd [4] [µM],Antibacterial activity (MIC) A. baumanii ATCC 19606 (A. baumanii ATCC 19606),Lipid II binding Kd [4],CC50% (72 h HeLa cells) (HeLa cells)
Clc1ccc(-c2cc(/C=C/c3cc4c5c(c3)CCCN5CCC4)[o+]c(-c3ccc(Cl)cc3)c2)cc1.F[B-](F)(F)F [6jc-69-4],4,5.66,≥ 64,8,≥ 64,≥ 64,8,>=64,≥ 64,≥ 64,≥ 64,30.3 ± 0.5,>=64,–,3.09
CCc1ccc(-c2cc(/C=C/C=C/c3ccc(N(C)C)cc3)[o+]c(-c3ccc(CC)cc3)c2)cc1.F[B-](F)(F)F [6jc64-2],5.66,16,≥ 64,8,≥ 64,≥ 64,8,>=64,≥ 64,≥ 64,≥ 64,23.8 ± 4,>=64,–,<.78125
CCc1ccc(-c2cc(/C=C/c3c[nH]c4ccccc34)[o+]c(-c3ccc(CC)cc3)c2)cc1.F[B-](F)(F)F [6jc64-3],8,8,≥ 64,4,64,64,5.66,>=64,64,≥ 64,≥ 64,4.92 ± 0.5,>=64,–,3.29
Cc1cc(/C=C/C=C/c2ccc(N(C)C)cc2)cc(C)[o+]1.F[B-](F)(F)F [6jc38],>=64,>=64,≥ 64,≥ 64,≥ 64,≥ 64,64,>=64,≥ 64,≥ 64,≥ 64,–,>=64,No,>32
Cc1ccc(-c2cc(/C=C/c3cc4c5c(c3)CCCN5CCC4)[o+]c(-c3ccc(C)c(C)c3)c2)cc1C.F[B-](F)(F)F [6jc-69-3],2.83,4,≥ 64,4,≥ 64,≥ 64,4,>=64,≥ 64,≥ 64,≥ 64,0.6 ± 0.1,>=64,–,<.78125

# More lines, main results first:
Antibacterial activity (MIC) E. faecium EF1509 (VRE) (E. faecium EF1509 (VRE)),Antibacterial activity (MIC) E. faecium F118 (VRE) (E. faecium F118 (VRE)),Antibacterial activity (MIC) P. aeruginosa ATCC 27853 (P. aeruginosa ATCC 27853) [µg/mL],Antibacterial activity (MIC) S. aureus HFH-30123 (MRSA) [1] [µg/mL],Antibacterial activity (MIC) K. pneumoniae NR-15410 (KPC) [2] [µg/mL],Antibacterial activity (MIC) K. pneumoniae NR-15411 (KPC) [3] [µg/mL],Antibacterial activity (MIC) S. aureus MRSA 1094 (S. aureus MRSA 1094) [µg/mL],Antibacterial activity (MIC) P. aeruginosa X13273 (P. aeruginosa X13273),Antibacterial activity (MIC) E. cloacae ATCC 13047 (E. cloacae ATCC 13047) [µg/mL],Antibacterial activity (MIC) E. aerogenes ATCC 13048 (E. aerogenes ATCC 13048) [µg/mL],Antibacterial activity (MIC) P. aeruginosa PA01 (P. aeruginosa PA01) [µg/mL],Kd [4] [µM],Antibacterial activity (MIC) A. baumanii ATCC 19606 (A. baumanii ATCC 19606),Lipid II binding Kd [4],Structure (SMILES),CC50% (72 h HeLa cells) (HeLa cells)
4,8,≥ 64,4,≥ 64,≥ 64,2.83,>=64,≥ 64,≥ 64,≥ 64,2.9 ± 0.3,45.25,–,Cn1cc(/C=C/c2cc(-c3ccccc3)cc(-c3ccccc3)[o+]2)c2ccccc21.F[B-](F)(F)F [6jc66-1],1.36
2,4,≥ 64,2,64,≥ 64,2,>=64,≥ 64,≥ 64,≥ 64,27.9 ± 2,64,–,Cc1ccc(-c2cc(/C=C/c3cn(C)c4ccccc34)[o+]c(-c3ccc(C)c(C)c3)c2)cc1C.F[B-](F)(F)F [6jc66-4],0.92
4,4,≥ 64,4,64,≥ 64,2,>=64,≥ 64,≥ 64,≥ 64,39 ± 4,16,–,CN(C)c1ccc(/C=C/c2cc(-c3ccccc3)cc(-c3ccccc3)[o+]2)cc1.F[B-](F)(F)F [6jc39],1.31
8,5.657,≥ 64,4,≥ 64,≥ 64,2,>=64,≥ 64,≥ 64,≥ 64,10 ± 3,>=64,–,Cc1ccc(-c2cc(/C=C/c3c[nH]c4ccccc34)[o+]c(-c3ccc(C)cc3)c2)cc1.F[B-](F)(F)F [6jc-53-2],1.12
